Assay results reported in patent US20160081980A1, “Composition Comprising AMD3100 For Preventing or Treating Bone Diseases” (KYUNGPOOK NATIONAL UNIVERSITY INDUSTRY-ACADEMIC COOPERATION …, priority 2013, published 2016).

How the values were obtained:
SDF-1 = conditions: AMD3100 5 mg/kg/day intraperitoneal for 21 days vs PBS
[1] = test system: Osteocalcin, PTHR1, Osterix, Runx2; conditions: bone marrow of OVX and control mice, real-time PCR; FIG. 4
OVX mice [2] = conditions: AMD3100-treated OVX mice compared to PBS-treated OVX mice, 21 days; FIG. 5
Method: 12-week-old female C57BL/6 mice were purchased from Jackson Laboratory (Bar Harbor, ME). Mice were housed in an air-conditioned room with a 12 hour light/dark cycle at a temperature of 22±2° C. and humidity of 45-65%, and given free access to food and tap water. Mice underwent either sham surgery or ovariectomy (OVX) at 12 weeks of age and were sacrificed at 16 weeks of age. One week after surgery, sham-operated and OVX mice received an intraperitoneal injection with AMD3100 (Sigma-Aldrich #A5602, St. Louis, Mo., sigma Aldrich.com) (5 mg/kg/day) or PBS for 21 days. At the end of treatment, the mice were sacrificed, and blood samples were collected by cardiac puncture for the colony-forming unit (CFU) assay.
Single-cell suspensions of peripheral blood (PB) after ammonium chloride lysis were plated into 35 mm dishes (3×10^5 cells/plate) with MethoCult GF M3434 (StemCell Technologies). Hematopoietic colonies were counted and scored after incubation for 12-14 days at 37° C., 5% CO2, as instructed by the manufacturer.
In order to determine whether AMD3100 may mobilize HSPCs from bone marrow in OVX mice, AMD3100 or PBS was administered to OVX mice for 21 days.

OVX mice [3] = conditions: AMD3100-treated vs PBS-treated OVX mice; did not reach statistical significance; FIGS. 6 & 7
Method: 12-week-old female C57BL/6 mice were purchased from Jackson Laboratory (Bar Harbor, ME). Mice were housed in an air-conditioned room with a 12 hour light/dark cycle at a temperature of 22±2° C. and humidity of 45-65%, and given free access to food and tap water. Mice underwent either sham surgery or ovariectomy (OVX) at 12 weeks of age and were sacrificed at 16 weeks of age. One week after surgery, sham-operated and OVX mice received an intraperitoneal injection with AMD3100 (Sigma-Aldrich #A5602, St. Louis, Mo., sigma Aldrich.com) (5 mg/kg/day) or PBS for 21 days. At the end of treatment, the mice were sacrificed, and blood samples were collected by cardiac puncture for the colony-forming unit (CFU) assay. Femora were removed, fixed with 4% paraformaldehyde in phosphate-buffered physiological saline solution (pH 7.4) for 16 hours, and then stored at 4° C. in 80% ethanol for measurement of bone density.
Bone marrow cells from the femurs and tibias were collected by flushing with 20 ml PBS passed through a 25-gauge needle. After centrifugation at 1,300 rpm for 5 minutes, the supernatant was removed and the cells were then washed by ammonium chloride lysis. […]

OVX mice [4] = conditions: AMD3100-treated vs PBS-treated OVX mice
BM-derived macrophages = conditions: RANKL 100 ng/ml, M-CSF 30 ng/ml, AMD3100 25 mg/ml for 3 days; FIG. 10
Method: Total RNA was extracted from BM cultures treated with or without RANKL in the presence or absence of AMD3100 (25 g/ml) for 3 days. […] RNA samples were extracted from whole bone marrow (BM) cells of four individual animals per group and isolated from the cultured cells using the RNeasy Mini kit (Qiagen, Hilden, Germany), and the concentration was determined using a Nanodrop ND-1000 spectrophotometer. A total of 5 mg of each RNA was converted to cDNA using the sprint RT complete-oligo (dT) 18 (Clontech, MountainView, Calif., www.clontech.com) according to the manufacturer's guide. The cDNA was quantified using the QuantiTect SYBR Green PCR Kit (Qiagen). The following reaction components were added to each investigated transcript to the indicated end-concentration: forward primer (5 pM), reverse primer (5 pM), and QuantiTect SYBR Green PCR Master mix. The 10 μl master-mix was added to a 0.1 ml tube, and 5 μl volume, containing 100 ng reverse transcribed total RNA, was added as polymerase chain reaction (PCR) template. The tubes were closed, centrifuged, and placed into the Corbett research RG-6000 real-time PCR machine (Corbett LifeScience, Sydney, Australia). The following primers were used: Bone marrow cells were obtained from the femurs and tibias of seven-week-old mice. The bone marrow suspension was added to plates along with macrophage colony stimulating factor (M-CSF; 30 ng/ml). […]

OVX mice [5] = test system: OVX mice

c1cc(CN2CCCNCCNCCCNCC2)ccc1CN1CCCNCCNCCCNCC1 [AMD3100, 1,1′-[1,4-Phenylenebis(methylene)]bis[1,4,8,1]-tetraazacyclotetradecanel]
levels of functional SDF-1 in bone marrow (SDF-1; bone marrow supernatant, FIG. 2): decreased | levels of functional SDF-1 in plasma (SDF-1; plasma, FIG. 3): increased | levels of osteoblast lineage-specific genes (Osteocalcin, PTHR1, Osterix, Runx2) [1]: no significant differences | number of CFU cells in blood (OVX mice [2]): significant increase | percentage of Lin-Sca-1+c-Kit+ (LSK) cells in bone marrow (OVX mice [3]): decrease | bone density in micro-CT images of the distal femur (OVX mice [4]; FIG. 8): increased bone density | bone mineral density (BMD) (OVX mice [4]; FIG. 9): increase | osteoclast differentiation (expression of genes associated with osteoclast differentiation) (BM-derived macrophages): did not affect osteoclast differentiation | osteoblast number/bone surface [N.Ob/BS (/mm)] (OVX mice [5]; H&E staining, AMD3100 treatment groups, FIG. 13): did not change significantly | number and size of TRAP+ active osteoclasts in the trabecular region (OVX mice [5]; TRAP staining, AMD3100-treated OVX mice, FIG. 11): decrease | osteoclast number/bone surface [N.Oc/BS (/mm)] (OVX mice [5]; histomorphometry, AMD3100-treated vs PBS-treated OVX mice, FIG. 12): decrease
